Results published in patent US20060069132A1, “Azolecarboxamide herbicides” (priority 2004, published 2006).

Assays:
[1] = tested on: barnyardgrass; experiment: Test A pre-/postemergence herbicide test; assay type: in vivo, Echinochloa crus-galli
Summary of the method: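 Visual injury rating on a 0–100 scale (0 no effect, 100 complete control) versus untreated controls, about ten days after treatment in greenhouse. Pre: directed soil spray onto seeded sandy loam. Post: spray to runoff on plants 2–10 cm tall at one- to two-leaf stage.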

[2] = tested on: cocklebur; experiment: Test C pre-/postemergence herbicide test; assay type: in vivo, Xanthium strumarium; conditions: for Cocklebur plant response rating: 500 g ai/ha
Summary of the method: (§1)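 Pre- and postemergence application, solvent/surfactant formulation; post at 1- to 4-leaf stage (2–18 cm). Greenhouse 12–14 d. Visual rating vs controls, 0 = no effect, 100 = complete control.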

[3] = tested on: corn; experiment: Test C pre-/postemergence herbicide test; assay type: in vivo, Zea mays; conditions: for Corn plant response rating: 500 g ai/ha
Summary of the method: as §1

[4] = tested on: large crabgrass; experiment: Test C pre-/postemergence herbicide test; assay type: in vivo, Digitaria sanguinalis; conditions: for Crabgrass, Large plant response rating: 500 g ai/ha
Summary of the method: as §1

[5] = tested on: lambsquarters; experiment: Test C pre-/postemergence herbicide test; assay type: in vivo, Chenopodium album; conditions: for Lambsquarters plant response rating: 500 g ai/ha
Summary of the method: as §1

[6] = tested on: eastern black nightshade; experiment: Test C pre-/postemergence herbicide test; assay type: in vivo, Solanum ptycanthum; conditions: for Plant response rating (0 = no effect, 100 = complete control), Nightshade: 62 g ai/ha; for Plant response rating (0 = no effect, 100 = complete control), Nightshade / Plant response rating, Nightshade: preemergence
Summary of the method: as §1

[7] = tested on: pigweed; experiment: Test C pre-/postemergence herbicide test; assay type: in vivo, Amaranthus retroflexus; conditions: for Pigweed plant response rating: 500 g ai/ha
Summary of the method: as §1

[8] = tested on: common ragweed; experiment: Test C pre-/postemergence herbicide test; assay type: in vivo, Ambrosia elatior; parameters: key to Plant response rating, Ragweed: 0 = no effect, 100 = complete control; conditions: for Ragweed plant response rating: 500 g ai/ha
Summary of the method: as §1

[9] = tested on: common (oilseed) sunflower; experiment: Test C pre-/postemergence herbicide test; assay type: in vivo, Helianthus annuus; conditions: for Plant response rating (0 = no effect, 100 = complete control), Sunflower: 62 g ai/ha; for Plant response rating (0 = no effect, 100 = complete control), Sunflower / Plant response rating, Sunflower: preemergence
Summary of the method: as §1

[10] = tested on: velvetleaf; experiment: Test C pre-/postemergence herbicide test; assay type: in vivo, Abutilon theophrasti; conditions: for Velvetleaf plant response rating: 500 g ai/ha
Summary of the method: as §1

[11] = Postemergence, 500 g ai/ha, 0 to 100 scale, 0 no effect, 100 complete control
[12] = Postemergence, 2000 g ai/ha, 0 to 100 scale, 0 no effect, 100 complete control
[13] = Preemergence, 500 g ai/ha, visual rating, 0 to 100 scale (0 no effect, 100 complete control)
[14] = 125 g ai/ha, scale 0 (no effect) to 100 (complete control), visual, 12 to 14 days, preemergence
[15] = 250 g ai/ha, scale 0 to 100 (0 no effect, 100 complete control), visual, 12 to 14 days, preemergence
[16] = Postemergence, 125 g ai/ha, scale 0 to 100, 0 no effect, 100 complete control
[17] = Postemergence, 250 g ai/ha, scale 0 to 100, 0 no effect, 100 complete control
[18] = Preemergence, scale 0 to 100, 0 no effect, 100 complete control
[19] = postemergence, 62 g ai/ha, scale 0 to 100
[20] = 125 g ai/ha, scale 0 (no effect) to 100 (complete control), visual, 12 to 14 days
[21] = 250 g ai/ha, scale 0 to 100 (0 no effect, 100 complete control), visual, 12 to 14 days
[22] = Preemergence, 500 g ai/ha, scale 0 to 100, 0 no effect, 100 complete control
[23] = 31 g ai/ha, preemergence, scale 0 to 100
[24] = postemergence, 125 g ai/ha, scale 0 to 100

Compound: C=CCNC(=O)c1cccc(NC(=O)c2cc(C(C)(C)C)nn2CC)c1 [Compound 46]
- Plant response rating, Barnyardgrass [1, 11]: 100
- Plant response rating, Barnyardgrass [1, 12]: 100
- Barnyardgrass plant response rating [1, 13]: 90
- Barnyardgrass plant response rating ([1]; Preemergence, 2000 g ai/ha, 0 to 100 scale, 0 no effect, 100 complete control): 100
- Plant response rating (0 = no effect, 100 = complete control), Cocklebur ([2]; 62 g ai/ha, preemergence): 0
- Plant response rating, Cocklebur [2, 14]: 40
- Plant response rating, Cocklebur [2, 15]: 90
- Cocklebur plant response rating ([2]; Postemergence, scale 0 to 100): 90
- Plant response rating, Cocklebur [2, 16]: 70
- Plant response rating, Cocklebur [2, 17]: 70
- Cocklebur plant response rating [2, 18]: 90
- Plant response rating, Cocklebur [2, 19]: 60
- Plant response rating (0 = no effect, 100 = complete control), Corn ([3]; 62 g ai/ha, preemergence): 0
- Plant response rating, Corn [3, 14]: 0
- Plant response rating, Corn [3, 15]: 10
- Corn plant response rating ([3]; Postemergence, scale 0 to 100): 80
- Plant response rating, Corn [3, 16]: 80
- Plant response rating, Corn [3, 17]: 80
- Corn plant response rating [3, 18]: 10
- Plant response rating, Corn [3, 19]: 80
- Plant response rating (0 = no effect, 100 = complete control), Crabgrass, Large ([4]; 62 g ai/ha, preemergence): 100
- Plant response rating, Crabgrass, Large [4, 14]: 100
- Plant response rating, Crabgrass, Large [4, 15]: 100
- Crabgrass, Large plant response rating ([4]; Postemergence, scale 0 to 100): 90
- Plant response rating, Crabgrass, Large [4, 16]: 90
- Plant response rating, Crabgrass, Large [4, 17]: 90
- Crabgrass, Large plant response rating [4, 18]: 100
- Plant response rating (0 = no effect, 100 = complete control), Lambsquarters ([5]; 62 g ai/ha, preemergence): 100
- Plant response rating, Lambsquarters [5, 14]: 100
- Plant response rating, Lambsquarters [5, 15]: 100
- Lambsquarters plant response rating ([5]; Postemergence, scale 0 to 100): 100
- Plant response rating, Lambsquarters [5, 17]: 100
- Lambsquarters plant response rating [5, 18]: 100
- Plant response rating, Lambsquarters [5, 19]: 80
- Plant response rating (0 = no effect, 100 = complete control), Nightshade [6]: 90
- Plant response rating, Nightshade [6, 20]: 100
- Plant response rating, Nightshade [6, 21]: 100
- Nightshade plant response rating [6, 22]: 100
- Plant response rating (0 = no effect, 100 = complete control), Pigweed ([7]; 62 g ai/ha, preemergence): 20
- Plant response rating, Pigweed [7, 14]: 100
- Plant response rating, Pigweed [7, 15]: 100
- Pigweed plant response rating ([7]; Postemergence, scale 0 to 100): 100
- Plant response rating, Pigweed [7, 17]: 100
- Pigweed plant response rating [7, 18]: 100
- Plant response rating, Pigweed [7, 19]: 100
- Plant response rating (0 = no effect, 100 = complete control), Ragweed ([8]; 62 g ai/ha, preemergence): 10
- Plant response rating, Ragweed [8, 14]: 40
- Plant response rating, Ragweed [8, 15]: 90
- Ragweed plant response rating ([8]; Postemergence, scale 0 to 100): 80
- Plant response rating, Ragweed [8, 17]: 80
- Ragweed plant response rating [8, 18]: 90
- Plant response rating, Ragweed [8, 19]: 70
- Plant response rating (0 = no effect, 100 = complete control), Sunflower [9]: 0
- Plant response rating, Sunflower [9, 20]: 10
- Plant response rating, Sunflower [9, 21]: 10
- Sunflower plant response rating [9, 22]: 10
- Plant response rating (0 = no effect, 100 = complete control), Velvetleaf ([10]; 62 g ai/ha, preemergence): 90
- Plant response rating, Velvetleaf [10, 14]: 100
- Plant response rating, Velvetleaf [10, 15]: 100
- Velvetleaf plant response rating ([10]; Postemergence, scale 0 to 100): 80
- Plant response rating, Velvetleaf [10, 17]: 80
- Velvetleaf plant response rating [10, 18]: 100
- Plant response rating, Velvetleaf [10, 19]: 50

Compound: C=Cn1nc(C(C)(C)C)cc1C(=O)Nc1cccc(C(C)=NO)c1 [Compound 114]
- Barnyardgrass plant response rating [1, 11]: 30
- Plant response rating, Barnyardgrass [1, 12]: 40
- Barnyardgrass plant response rating [1, 13]: 25
- Barnyardgrass plant response rating ([1]; Preemergence, 2000 g ai/ha, visual rating, 0 to 100 scale (0 no effect, 100 complete control)): 40
- Plant response rating, Cocklebur [2, 23]: 0
- Plant response rating (0 = no effect, 100 = complete control), Cocklebur ([2]; 62 g ai/ha, preemergence): 20
- Plant response rating, Cocklebur [2, 14]: 20
- Plant response rating, Cocklebur [2, 15]: 30
- Plant response rating, Cocklebur [2, 17]: 30
- Plant response rating, Cocklebur [2, 24]: 30
- Plant response rating, Cocklebur ([2]; postemergence, 31 g ai/ha, scale 0 to 100): 30
- Plant response rating, Cocklebur [2, 19]: 30
- Plant response rating, Corn [3, 23]: 10
- Plant response rating (0 = no effect, 100 = complete control), Corn ([3]; 62 g ai/ha, preemergence): 10
- Plant response rating, Corn [3, 14]: 10
- Plant response rating, Corn [3, 15]: 10
- Plant response rating, Corn [3, 17]: 40
- Plant response rating, Corn [3, 24]: 30
- Plant response rating, Corn [3, 19]: 30
- Plant response rating, Crabgrass, Large [4, 23]: 100
- Plant response rating (0 = no effect, 100 = complete control), Crabgrass, Large ([4]; 62 g ai/ha, preemergence): 100
- Plant response rating, Crabgrass, Large [4, 14]: 100
- Plant response rating, Crabgrass, Large [4, 15]: 100
- Plant response rating, Crabgrass, Large [4, 17]: 100
- Plant response rating, Crabgrass, Large [4, 24]: 100
- Plant response rating, Crabgrass, Large [4, 19]: 20
- Plant response rating, Lambsquarters [5, 23]: 40
- Plant response rating (0 = no effect, 100 = complete control), Lambsquarters ([5]; 62 g ai/ha, preemergence): 80
- Plant response rating, Lambsquarters [5, 14]: 100
- Plant response rating, Lambsquarters [5, 17]: 100
- Plant response rating, Lambsquarters [5, 24]: 90
- Plant response rating, Lambsquarters [5, 19]: 90
- Plant response rating, Nightshade ([6]; 31 g ai/ha, scale 0 to 100): 20
- Plant response rating (0 = no effect, 100 = complete control), Nightshade [6]: 70
- Plant response rating, Nightshade [6, 20]: 90
- Plant response rating, Pigweed [7, 23]: 0
- Plant response rating (0 = no effect, 100 = complete control), Pigweed ([7]; 62 g ai/ha, preemergence): 100
- Plant response rating, Pigweed [7, 14]: 100
- Plant response rating, Pigweed [7, 17]: 100
- Plant response rating, Pigweed [7, 24]: 100
- Plant response rating, Pigweed [7, 19]: 100
- Plant response rating, Ragweed [8, 23]: 10
- Plant response rating (0 = no effect, 100 = complete control), Ragweed ([8]; 62 g ai/ha, preemergence): 10
- Plant response rating, Ragweed [8, 14]: 10
- Plant response rating, Ragweed [8, 17]: 90
- Plant response rating, Ragweed [8, 24]: 80
- Plant response rating, Ragweed [8, 19]: 60
- Plant response rating, Sunflower ([9]; 31 g ai/ha, scale 0 to 100): 30
- Plant response rating (0 = no effect, 100 = complete control), Sunflower [9]: 30
- Plant response rating, Sunflower [9, 20]: 30
- Plant response rating, Velvetleaf [10, 23]: 0
- Plant response rating, Velvetleaf [10, 14]: 30
- Plant response rating, Velvetleaf [10, 17]: 80
- Plant response rating, Velvetleaf [10, 24]: 70
- Plant response rating, Velvetleaf [10, 19]: 60
